# Earlier results in article PMC7234998, “Quantification of Colistin in Plasma by Liquid Chromatography-Tandem Mass Spectrometry: Application to a Pharmacokinetic Study” (Scientific Reports, 2020).
# Details: in vivo, cited from earlier work
# Procedure: However, colistin sulphate has been reported to be well absorbed after an oral administration in infants. […] The standards and quality control samples concentrations were selected based on the therapeutic range of colistin. The expected colistin serum levels according to the antimicrobial reference laboratory assay service are 5–15 mg/L and 2–4 mg/L for the peak and tough concentrations, respectively. […] Choosing the animal species to perform the pharmacokinetic study was based on the similarity of colistin pharmacokinetic profile between animal species and humans. […] The species that has the closest pharmacokinetic profile to humans are rats[43]–[45].
Substance,absorption after oral administration in infants (po),absorption from the gastrointestinal tract (GIT) (po),maximum serum concentration [mg/L],time of maximum serum concentration [h],Vd at steady state (human) [L/kg],t1/2 (human) [h],absorption after intramuscular injection,"absorption through burns, inflamed skin or mucosal membranes",absorption through the GIT
colistin sulphate,well absorbed,poorly absorbed,0.13,1.5,–,–,–,–,–
colistimethate sodium [CMS],–,–,–,–,0.34 ± 0.10,2.07 ± 0.867,rapidly absorbed,not absorbed,poorly absorbed
